“And” between values parts separate entries of the source, which are not always exact repeats. Equal values may be shown once. Inconclusive results and toxic doses are left out. Peptide text beside a SMILES is read from it. * marks the point of attachment. Boc = CC(C)(C)OC(=O)*
Tested on: P388 leukemia ip, CD2F1 mice, survival T/C
Assay: NCI In Vivo Anticancer Drug Screen. Data for tumor model P388 Leukemia (intraperitoneal) in CD2F1 (CDF1) mice
Conditions: endpoint: median survival time, higher = longer survival
Procedure, shortened: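 Mice carrying the transplanted tumor received test compound or vehicle. Survival was recorded in each group, and the value is the treated-group measurement divided by that of the vehicle-treated control group.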

[1] = dose: 50.0 mg/kg/injection, schedule: Q01DX005 (ip), vehicle: saline
[2] = dose: 100.0 mg/kg/injection, schedule: Q01DX005 (ip), vehicle: saline
[3] = dose: 200.0 mg/kg/injection, schedule: Q01DX005 (ip), vehicle: saline
[4] = dose: 25.0 mg/kg/injection, schedule: Q01DX009 (ip), vehicle: Klucel (hydroxypropylcellulose) (HPC)
[5] = dose: 50.0 mg/kg/injection, schedule: Q01DX009 (ip), vehicle: Klucel (hydroxypropylcellulose) (HPC)
[6] = dose: 100.0 mg/kg/injection, schedule: Q01DX009 (ip), vehicle: Klucel (hydroxypropylcellulose) (HPC)
[7] = dose: 50.0 mg/kg/injection, schedule: Q01DX005 (ip), vehicle: saline with Tween-80
[8] = dose: 100.0 mg/kg/injection, schedule: Q01DX005 (ip), vehicle: saline with Tween-80
[9] = dose: 50.0 mg/kg/injection, schedule: Q01DX005 (ip), vehicle: Klucel (hydroxypropylcellulose) (HPC)
[10] = dose: 100.0 mg/kg/injection, schedule: Q01DX005 (ip), vehicle: Klucel (hydroxypropylcellulose) (HPC)
[11] = dose: 200.0 mg/kg/injection, schedule: Q01DX005 (ip), vehicle: Klucel (hydroxypropylcellulose) (HPC)
[12] = dose: 100.0 mg/kg/injection, schedule: Q04DX003 (ip), vehicle: saline with Tween-80
[13] = dose: 12.5 mg/kg/injection, schedule: Q01DX005 (ip), vehicle: Klucel (hydroxypropylcellulose) (HPC)
[14] = dose: 25.0 mg/kg/injection, schedule: Q01DX005 (ip), vehicle: Klucel (hydroxypropylcellulose) (HPC)
[15] = dose: 60.0 mg/kg/injection, schedule: Q01DX005 (ip), vehicle: saline with Tween-80
[16] = dose: 120.0 mg/kg/injection, schedule: Q01DX005 (ip), vehicle: saline with Tween-80
[17] = dose: 240.0 mg/kg/injection, schedule: Q01DX005 (ip), vehicle: saline with Tween-80
[18] = dose: 200.0 mg/kg/injection, schedule: Q04DX003 (ip), vehicle: saline with Tween-80
[19] = dose: 400.0 mg/kg/injection, schedule: Q04DX003 (ip), vehicle: saline with Tween-80
[20] = dose: 200.0 mg/kg/injection, schedule: Q01DX009 (ip), vehicle: Klucel (hydroxypropylcellulose) (HPC)
[21] = dose: 60.0 mg/kg/injection, schedule: Q01DX005 (ip), vehicle: Klucel (hydroxypropylcellulose) (HPC)
[22] = dose: 120.0 mg/kg/injection, schedule: Q01DX005 (ip), vehicle: Klucel (hydroxypropylcellulose) (HPC)
[23] = dose: 240.0 mg/kg/injection, schedule: Q01DX005 (ip), vehicle: Klucel (hydroxypropylcellulose) (HPC)

With `CN(C)C1C(=O)C(C(=O)NCNC(C=O)C(O)C(O)C(O)CO)=C(O)C2(O)C(=O)C3=C(O)c4c(O)cccc4C(C)(O)C3CC12` (stereo not given) the T/C [1] was 100 % of control, the T/C [2] was 99 % of control and the T/C [3] was 96 % of control.

In the case of `O=C(Nc1ccccc1)Oc1cccc(/C=N/Sc2ccccc2)c1`, the T/C (dose: 50.0 mg/kg/injection, schedule: Q01DX009 (ip), vehicle: saline with Tween-80) is reported as 98 % of control.

For `CC/C=C/c1cc2ccccc2c(=O)o1`, the T/C (dose: 12.5 mg/kg/injection, schedule: Q01DX009 (ip), vehicle: Klucel (hydroxypropylcellulose) (HPC)) was 106 % of control, the T/C [4] was 114 % of control and the T/C [5] was 100 % of control. The T/C [6] was 110 % of control.

For `CC(=O)Nc1cccc(OCc2cccc(N3C(N)=NC(N)=NC3(C)C)c2)c1`, the T/C (dose: 1.56 mg/kg/injection, schedule: Q01DX009 (ip), vehicle: distilled water + Tween-80) was 99 % of control, the T/C (dose: 3.12 mg/kg/injection, schedule: Q01DX009 (ip), vehicle: distilled water + Tween-80) was 99 % of control and the T/C (dose: 6.25 mg/kg/injection, schedule: Q01DX009 (ip), vehicle: distilled water + Tween-80) was 105 % of control. For the same compound, the T/C (dose: 6.25 mg/kg/injection, schedule: Q01DX009 (ip), vehicle: saline) was 105 % of control, the T/C (dose: 12.5 mg/kg/injection, schedule: Q01DX009 (ip), vehicle: distilled water + Tween-80) was 105 % of control and the T/C (dose: 12.5 mg/kg/injection, schedule: Q01DX009 (ip), vehicle: saline) was 101 % of control. For the same compound, the T/C (dose: 25.0 mg/kg/injection, schedule: Q01DX009 (ip), vehicle: saline) was 117 % of control.

With `Cc1ccc(SC(F)(F)C(F)C(F)(F)F)cc1` (stereo not given) the T/C [1] was 98 % of control, the T/C [2] was 101 % of control and the T/C [3] was 100 % of control.

`COc1c(OC)c2oc(=O)c3cc4c(c5oc(=O)c(c1OC)c2c53)OCO4` was tested, and the T/C (dose: 1.75 mg/kg/injection, schedule: Q01DX005 (ip), vehicle: other) was 88 % of control, the T/C (dose: 3.5 mg/kg/injection, schedule: Q01DX005 (ip), vehicle: other) was 86 % of control and the T/C (dose: 7.0 mg/kg/injection, schedule: Q01DX005 (ip), vehicle: other) was 86 % of control.

With `O=C(O)C1CSCN1c1cccc[n+]1[O-]` (stereo not given) the T/C (dose: 25.0 mg/kg/injection, schedule: Q01DX005 (ip), vehicle: saline with Tween-80) was 101 % of control, the T/C [7] was 102 % of control and the T/C [8] was 99 % of control.

For `CN(C)CCN1C(=O)c2cccc3cc(N)cc(c23)C1=O`, the T/C (dose: 2.0 mg/kg/injection, schedule: Q01DX009 (ip), vehicle: saline with Tween-80) was 111 % of control and the T/C (dose: 8.0 mg/kg/injection, schedule: Q01DX009 (ip), vehicle: saline with Tween-80) was 176 % of control.

With `CSCCC(NC(=O)C(CC(C)C)NC(=O)OC(C)(C)C)C(N)=O` (stereo not drawn) (Boc-Leu-Met-NH2; configuration not given here) the T/C [9] was 98 % of control, the T/C [10] was 91 % of control and the T/C [11] was 95 % of control.

With `c1ccc(N2CCSCC2)cc1` the T/C (dose: 50.0 mg/kg/injection, schedule: Q04DX003 (ip), vehicle: saline) was 104 % of control, the T/C (dose: 66.0 mg/kg/injection, schedule: Q04DX003 (ip), vehicle: saline with Tween-80) was 150 % of control and the T/C [12] was 204 % of control. The T/C (dose: 150.0 mg/kg/injection, schedule: Q04DX003 (ip), vehicle: saline with Tween-80) was 190 % of control and the T/C (dose: 200.0 mg/kg/injection, schedule: Q04DX003 (ip), vehicle: saline) was 109 % of control.

In the case of `CCn1c(=O)c2[nH]c(Cl)nc2n(C)c1=O`, the T/C (dose: 16.0 mg/kg/injection, schedule: Q01DX009 (ip), vehicle: Klucel (hydroxypropylcellulose) (HPC)) is reported as 111 % of control, the T/C [4] is reported as 102 % of control and the T/C (dose: 32.0 mg/kg/injection, schedule: Q01DX009 (ip), vehicle: Klucel (hydroxypropylcellulose) (HPC)) is reported as 107 % of control. For the same compound, the T/C [5] was 94 % of control and the T/C (dose: 64.0 mg/kg/injection, schedule: Q01DX009 (ip), vehicle: Klucel (hydroxypropylcellulose) (HPC)) was 102 % of control.

In the case of `CC1(C)CC(NC2CCCCC2)=CC(=NC2CCCCC2)N1`, the T/C (dose: 6.25 mg/kg/injection, schedule: Q01DX005 (ip), vehicle: Klucel (hydroxypropylcellulose) (HPC)) is reported as 100 % of control, the T/C [13] is reported as 105 % of control and the T/C [14] is reported as 99 % of control and 101 % of control. For the same compound, the T/C [9] was 100 % of control.

For `O=P(CSCCO)(c1ccccc1)c1ccccc1`, the T/C [15] was 89 % of control, the T/C [16] was 93 % of control and the T/C [17] was 97 % of control.

In the case of `CC(=O)[C@H]1CC[C@H]2[C@@H]3C[C@H](C)C4=CC(=O)CC[C@]4(C)[C@@]3(F)[C@@H](O)C[C@]12C`, the T/C [12] is reported as 95 % of control, the T/C [18] is reported as 87 % of control and the T/C [19] is reported as 100 % of control.

`N#Cc1c(-c2ccccc2)cn2c1[nH]c(=O)c1ccccc12` was tested, and the T/C [15] was 111 % of control, the T/C [16] was 107 % of control and the T/C [17] was 101 % of control.

For `COc1ccc2[nH]c(-c3ccccc3)cc2c1`, the T/C [12] was 105 % of control, the T/C [18] was 110 % of control and the T/C [19] was 100 % of control.

For `COC(=O)c1ccn2c1CCC2`, the T/C [4] was 91 % of control, the T/C [5] was 91 % of control and the T/C [6] was 95 % of control. The T/C [20] was 98 % of control and the T/C (dose: 400.0 mg/kg/injection, schedule: Q01DX009 (ip), vehicle: Klucel (hydroxypropylcellulose) (HPC)) was 91 % of control.

For `Cc1ccc(/C(CBr)=N/N=C(/CBr)c2ccc(C)cc2)cc1`, the T/C [5] was 100 % of control, the T/C [6] was 92 % of control and the T/C [20] was 98 % of control.

In the case of `O=C(Nc1ccc(N=C(NC2CCCCC2)c2ccccc2)cc1)c1ccc(C(=O)Nc2ccc(N=C(NC3CCCCC3)c3ccccc3)cc2)cc1`, the T/C [13] is reported as 104 % of control, the T/C [14] is reported as 103 % of control and the T/C [9] is reported as 104 % of control and 111 % of control. For the same compound, the T/C [10] was 91 % of control and the T/C [11] was 106 % of control.

In the case of `CC1=NN(C(=O)c2ccccc2)C(=O)C1N=Nc1ccc(C(=O)O)cc1` (stereo not given), the T/C [14] is reported as 110 % of control, the T/C [9] is reported as 95 % of control and the T/C [10] is reported as 104 % of control. The T/C [11] was 99 % of control.

In the case of `CC(/C=N/Nc1ccccc1)=N\N=c1/scc(-c2ccc(Br)cc2)n1-c1ccc(Br)cc1`, the T/C (dose: 100.0 mg/kg/injection, schedule: Q04DX002 (ip), vehicle: saline with Tween-80) is reported as 86 % of control and the T/C (dose: 200.0 mg/kg/injection, schedule: Q04DX002 (ip), vehicle: saline with Tween-80) is reported as 86 % of control.

With `Cc1cccc(NC(=O)NC2CCCC(C)C2)c1` (stereo not given) the T/C (dose: 50.0 mg/kg/injection, schedule: Q01DX009 (ip), vehicle: saline) was 98 % of control, the T/C (dose: 100.0 mg/kg/injection, schedule: Q01DX009 (ip), vehicle: saline) was 93 % of control and the T/C (dose: 200.0 mg/kg/injection, schedule: Q01DX009 (ip), vehicle: saline) was 91 % of control.

`Clc1nc(Cl)c2c3c(sc2n1)CCCC3` was tested, and the T/C [21] was 91 % of control, the T/C [22] was 90 % of control and the T/C [23] was 99 % of control.

For `N#Cc1ccc(OC(=O)Nc2ccc(F)cc2)cc1`, the T/C [15] was 106 % of control and the T/C [16] was 104 % of control.

In the case of `CC1=C(O)c2cc3c(cc2C(=O)C1=O)OCO3`, the T/C [21] is reported as 98 % of control, the T/C [22] is reported as 88 % of control and the T/C [23] is reported as 92 % of control.

With `CC(NNC(=S)N1CC2CCC(CC2)C1)c1cccc[n+]1[O-]` (stereo not given) the T/C [7] was 101 % of control, the T/C [8] was 100 % of control and the T/C (dose: 200.0 mg/kg/injection, schedule: Q01DX005 (ip), vehicle: saline with Tween-80) was 100 % of control.

In the case of `CCc1nc(N)nc(N)c1-c1ccc(Cl)c(S(=O)(=O)O)c1`, the T/C [15] is reported as 103 % of control, the T/C [16] is reported as 98 % of control and the T/C [17] is reported as 98 % of control.

In the case of `NC1=C(O)C(=O)C(c2c(Cl)cccc2Cl)O1` (stereo not given), the T/C [21] is reported as 105 % of control, the T/C [22] is reported as 102 % of control and the T/C [23] is reported as 105 % of control.

For `CCCCNC1=CC(=O)C(NCCCC)=CC1=O`, the T/C [9] was 100 % of control, the T/C [10] was 101 % of control and the T/C [11] was 98 % of control.

For `CCCCCn1cnc2cc(N3CCOCC3)c([N+](=O)[O-])cc2c1=O`, the T/C (dose: 100.0 mg/kg/injection, schedule: Q04DX003 (ip), vehicle: Klucel (hydroxypropylcellulose) (HPC)) was 103 % of control, the T/C (dose: 200.0 mg/kg/injection, schedule: Q04DX003 (ip), vehicle: Klucel (hydroxypropylcellulose) (HPC)) was 96 % of control and the T/C (dose: 400.0 mg/kg/injection, schedule: Q04DX003 (ip), vehicle: Klucel (hydroxypropylcellulose) (HPC)) was 96 % of control.

Source: PubChem BioAssay AID330 (DTP/NCI, 2004)
